Reference: patent publication US10941139B2, “Cryptophycin compounds and conjugates, their preparation and their therapeutic use” (priority 2015, dated 2021)
Where “and” joins values, the source holds several entries; their conditions need not be identical. Identical values can stand only once. Like-named read-outs stand apart in the source and are kept apart here.

What was measured:
MDA-MB-231 cells = assay: Inhibition of proliferation of the MDA-MB-231 cell line by the cryptophycin compounds of formula (I) (14C-thymidine incorporation); format: cell-based; conditions: 14C-thymidine incorporation at 96 h, tested as pure β epoxide or α/β epoxide mixture (structural comment), read-out: IC50 (pM) MDA-MD-231
Protocol: (§1) Evaluation of the Inhibition of Proliferation of the HCT116 and MDA-MB-231 Cell Lines by the Cryptophycin Compounds of Formula (I)
(§2) HCT116 and MDA-MB-231 cells in their exponential growth phase were trypsinized and resuspended in their respective culture medium (DMEM/F12 Gibco #21331, 10% FCS Gibco #10500-056, […] Gibco #25030 for the MDA-MB-231 cells; DMEM Gibco #11960, 10% FCS Gibco #10500-056, 2 mM glutamine Gibco #25030 for the HCT116 cells). The cell suspension was seeded in Cytostar 96-well culture plates (GE Healthcare Europe, # RPNQ0163) in the whole culture medium containing serum at a density of 5000 cells/well. After incubation for 4 h, successive dilutions of the cryptophycin compounds were added to the wells at concentrations decreasing from 10^−7 to 10^−12 M (in triplicate for each concentration). The cells were cultured at 37° C. in an atmosphere containing 5% CO2 in the presence of the cryptophycin compounds for 3 d. On the 4th day, 10 μl of a ^14C-thymidine solution (0.1 μCi/well, Perkin Elmer # NEC56825000) were added to each well. The incorporation of ^14C-thymidine was measured 96 h after the start of the experiment with a microbeta radioactivity counter (Perkin Elmer). The data were expressed in the form of a percentage of survival by determining the ratio between the reduced count obtained with the cells treated with the cryptophycin compound and the count obtained with the cells of the control wells (treated with the culture medium alone).
(§3) The inhibitory activity is given by the concentration which inhibits 50% of the activity.

[1] = 16-membered ring
HCT116 cells = assay: Inhibition of proliferation of the HCT116 cell line by the cryptophycin compounds of formula (I) (14C-thymidine incorporation); format: cell-based; conditions: tested as pure β epoxide or α/β epoxide mixture (structural comment)
Protocol: as §1, §2, §3

lung cancer = conditions: two phase II lung cancer trials; cited from earlier work
[2] = Homo sapiens, HCT-116, 14C-thymidine incorporation at 96 h

Compound: COc1ccc(C[C@H]2NC(=O)/C=C/C[C@@H]([C@H](C)C3OC3c3ccc(CO)cc3)OC(=O)[C@H](C(C)(C)C)NC(=O)C(C)(C)CNC2=O)cc1Cl (stereo partly drawn) [Ex. 17, (3S,10R,16S,E)-10-(3-chloro-4-methoxybenzyl)-16-((S)-1-(3-(4-(hydroxy-methyl)phenyl)oxiran-2-yl)ethyl)-3-tert-butyl-6,6-dimethyl-1-oxa-4,8,11-triazacyclohexadec-13-ene-2,5,9,12-tetraone]
- IC50 (MDA-MB-231 cells; Homo sapiens, MDA-MB-231): 856 pM

Compound: (3S,10R,16S, E)-16-((R,E)-4-(4-(azidomethyl)phenyl)but-3-en-2-yl)-10-(3-chloro-4-methoxybenzyl)-3-isobutyl-6,6,7-trimethyl-1-oxa-4,8,11-triazacyclohexadec-13-ene-2,5,9,12-tetraone
- ring closure, isolated yield ([1]; amide bond): 53%

Compound: COc1ccc(C[C@H]2NC(=O)/C=C/C[C@@H]([C@H](C)[C@H]3O[C@@H]3c3ccc(CO)cc3)OC(=O)[C@H](CC(C)(C)C)NC(=O)C(C)(C)CNC2=O)cc1Cl [Ex. 4, (3S,10R,16S,E)-10-(3-chloro-4-methoxybenzyl)-16-((S)-1-((2R,3R)-3-(4-(hydroxy-methyl)phenyl)oxiran-2-yl)ethyl)-6,6-dimethyl-3-neopentyl-1-oxa-4,8,11-triazacyclohexadec-13-ene-2,5,9,12-tetraone]
- IC50 (HCT116 cells; [2]): 51 pM
- IC50 (MDA-MB-231 cells; Homo sapiens, MDA-MB-231): 82 pM

Compound: (3S,10R,16S, E)-10-(3-chloro-4-methoxybenzyl)-16-((R,E)-4-(4-(hydroxymethyl)-phenyl)but-3-en-2-yl)-6,6-dimethyl-3-neopentyl-1-oxa-4,8,11-triazacyclohexadec-13-ene-2,5,9,12-tetraone
- ring closure, isolated yield ([1]; amide bond): 70%

Compound: COc1ccc(C[C@H]2NC(=O)/C=C/C[C@@H]([C@H](C)C3OC3c3ccc(CO)cc3)OC(=O)[C@H](C)NC(=O)C(C)(C)CNC2=O)cc1Cl (stereo partly drawn) [Ex. 15, (3S,10R,16S,E)-10-(3-chloro-4-methoxybenzyl)-16-((S)-1-(3-(4-(hydroxy-methyl)phenyl)oxiran-2-yl)ethyl)-3,6,6-trimethyl-1-oxa-4,8,11-triazacyclohexadec-13-ene-2,5,9,12-tetraone]
- IC50 (MDA-MB-231 cells; Homo sapiens, MDA-MB-231): 511 pM

Compound: (3S,10R,16S,E)-16-((S)-1-((2R,3R)-3-(4-(aminomethyl)phenyl)oxiran-2-yl)ethyl)-10-(3-chloro-4-methoxybenzyl)-6-methyl-3-neopentyl-6-(((triethylsilyl)oxy)methyl)-1-oxa-4, 8,11-triazacyclohexadec-13-ene-2,5,9,12-tetraone [Ex. 32]
- IC50 (MDA-MB-231 cells): 1780 pM

Compound: (3S,10R,16S,E)-16-((R,E)-4-(4-(azidomethyl)phenyl)but-3-en-2-yl)-10-(3-chloro-4-methoxybenzyl)-3-isobutyl-6,6-dimethyl-1-oxa-4,8,11-triazacyclohexadec-13-ene-2,5,9,12-tetraone
- ring closure, isolated yield ([1]; amide bond): 68%

Compound: COc1ccc(C[C@H]2NC(=O)/C=C/C[C@@H]([C@H](C)C3OC3c3ccc(CN)cc3)OC(=O)[C@H](CC(C)C)NC(=O)C(C)(C)C(C)NC2=O)cc1Cl (stereo partly drawn) [Ex. 8, (3S,10R,16S,E)-16-((S)-1-(3-(4-(aminomethyl)phenyl)oxiran-2-yl)ethyl)-10-(3-chloro-4-methoxybenzyl)-3-isobutyl-6,6,7-trimethyl-1-oxa-4,8,11-triazacyclohexadec-13-ene-2,5,9,12-tetraone]
- IC50 (HCT116 cells; [2]): 518 pM
- IC50 (MDA-MB-231 cells; Homo sapiens, MDA-MB-231): 564 pM

Compound: COc1ccc(C[C@H]2NC(=O)/C=C/C[C@@H]([C@H](C)[C@H]3O[C@@H]3c3ccccc3)OC(=O)[C@H](CC(C)C)OC(=O)C(C)(C)CNC2=O)cc1Cl [C-52, cryptophycin C-52, reference compound]
- IC50 (HCT116 cells; 14C-thymidine incorporation at 96 h): 76 pM
- stable disease (lung cancer): 30-40%
- IC50 (MDA-MB-231 cells): 90 pM

Compound: COc1ccc(C[C@H]2NC(=O)/C=C/C[C@@H]([C@H](C)[C@H]3O[C@@H]3c3ccc(CN)cc3)OC(=O)[C@H](CC(C)C)NC(=O)C(C)(C)C(C)NC2=O)cc1Cl (stereo partly drawn) [Ex. 18, (3S,10R,16S,E)-16-((S)-1-((2R,3R)-3-(4-(aminomethyl)phenyl)oxiran-2-yl)ethyl)-10-(3-chloro-4-methoxybenzyl)-3-isobutyl-6,6,7-trimethyl-1-oxa-4,8,11-triazacyclohexadec-13-ene-2,5,9,12-tetraone]
- IC50 (HCT116 cells; [2]): 179 pM
- IC50 (MDA-MB-231 cells; Homo sapiens, MDA-MB-231): 228 pM

Compound: COc1ccc(C[C@H]2NC(=O)/C=C/C[C@@H]([C@H](C)[C@H]3O[C@@H]3c3ccc(CN)cc3)OC(=O)[C@H](CC(C)C)NC(=O)C(C)(C)CNC2=O)cc1Cl [Ex. 1, (3S,10R,16S,E)-16-((S)-1-((2R,3R)-3-(4-(aminomethyl)phenyl)oxiran-2-yl)ethyl)-10-(3-chloro-4-methoxybenzyl)-3-isobutyl-6,6-dimethyl-1-oxa-4,8,11-triazacyclohexadec-13-ene-2,5,9,12-tetraone]
- IC50 (HCT116 cells; [2]): 163 pM
- IC50 (MDA-MB-231 cells; Homo sapiens, MDA-MB-231): 250 pM

Compound: COc1ccc(C[C@H]2NC(=O)/C=C/C[C@@H]([C@H](C)[C@H]3O[C@@H]3c3ccc(CO)cc3)OC(=O)[C@H](CC(C)(C)C)NC(=O)C(C)(C)C(C)NC2=O)cc1Cl (stereo partly drawn) [Ex. 11, (3S,10R,16S,E)-10-(3-chloro-4-methoxybenzyl)-16-((S)-1-((2R,3R)-3-(4-(hydroxymethyl)phenyl)oxiran-2-yl)ethyl)-6,6,7-trimethyl-3-neopentyl-1-oxa-4,8,11-triazacyclohexadec-13-ene-2,5,9,12-tetraone]
- IC50 (MDA-MB-231 cells; Homo sapiens, MDA-MB-231): 102 pM

Compound: (3S,7S,10R,16S, E)-10-(3-chloro-4-methoxybenzyl)-16-((R)-1-((4-methoxy-benzyl)oxy)propan-2-yl)-6,6,7-trimethyl-3-neopentyl-1-oxa-4,8,11-triazacyclohexadec-13-ene-2,5,9,12-tetraone
- ring closure, isolated yield ([1]; rcm bond): 61%

Compound: (3S,10R,16S,E)-10-(3-chloro-4-methoxybenzyl)-6-(hydroxymethyl)-16-((R)-1-((4-methoxybenzyl)oxy)propan-2-yl)-6-methyl-3-neopentyl-1-oxa-4,8,11-triazacyclohexadec-13-ene-2,5,9,12-tetraone
- ring closure, isolated yield ([1]; rcm bond): 56% and 37%

Compound: (3S,10R,16S, E)-10-(3-chloro-4-methoxybenzyl)-16-((R,E)-4-(4-(hydroxymethyl)-phenyl)but-3-en-2-yl)-6,6,7-trimethyl-3-neopentyl-1-oxa-4,8,11-triazacyclohexadec-13-ene-2,5,9,12-tetraone
- ring closure, isolated yield ([1]; amide bond): 54%

Compound: COc1ccc(C[C@H]2NC(=O)/C=C/C[C@@H]([C@H](C)C3OC3c3ccc(CO)cc3)OC(=O)[C@H](C(C)C)NC(=O)C(C)(C)CNC2=O)cc1Cl (stereo partly drawn) [Ex. 16, (3S,10R,16S,E)-10-(3-chloro-4-methoxybenzyl)-16-((S)-1-(3-(4-(hydroxy-methyl)phenyl)oxiran-2-yl)ethyl)-6,6-dimethyl-3-isopropyl-1-oxa-4,8,11-triazacyclohexadec-13-ene-2,5,9,12-tetraone]
- IC50 (MDA-MB-231 cells; Homo sapiens, MDA-MB-231): 2820 pM
